US10751318B2, “Pharmaceutical co-crystal and use thereof” (SYN-NAT PRODUCTS ENTERPRISE LLC, priority 2015, dated 2020)
pIC50: −log10 of the molar value. Values joined by “and” are separate entries in the source; they are usually repeats but may differ in a detail not shown here. Equal values may be shown once. Read-outs that look alike come from different tables or passages of the source.

Legend:
[1] = system: PC-3 prostate cancer cell line; test: MTS cell viability assay, PC-3 prostate cancer cells; type: cell-based, human; conditions: PC-3 cells, 0.01 to 300 μM, read-out: IC50 to reduce PC-3 cell number
[2] = system: HBsAg secreted by HepG2.2.15 cells; test: HBsAg secreted by HepG2.2.15 cells (ELISA); type: cell-based, hepatitis B virus; conditions: 3d
Description: (§1) The levels of HbsAg and HbeAg in chemical-treated HepG2.2.15 cells were detected by enzyme-linked immunosorbent assay (ELISA).

[3] = system: fetal hepatocytes HL-7002; test: MTS cell viability assay, HL-7002 (prostate cancer study; controls docetaxel, cisplatin); conditions: for pIC50: read-out: IC50 to reduce HL-7002 cell number
[4] = system: human embryonic kidney cell line HEK293; test: MTS cell viability assay, HEK293 (kidney cancer study; controls carboplatin, 5-FU)
[5] = system: ACHN kidney cancer cell line; test: MTS cell viability assay, ACHN kidney cancer cells; type: cell-based; conditions: read-out: IC50 to reduce ACHN cell number
[6] = system: HBeAg secreted by HepG2.2.15 cells; test: HBeAg secreted by HepG2.2.15 cells (ELISA); type: cell-based, hepatitis B virus; conditions: 3d
Description: as §1

[7] = system: fetal hepatocytes HL-7002; test: MTS cell viability assay, HL-7002 (kidney cancer study; controls carboplatin, 5-FU); conditions: for pIC50: read-out: IC50 in HL-7002 cells
[8] = system: human embryonic kidney cell line HEK293; test: MTS cell viability assay, HEK293 (prostate cancer study; controls docetaxel, cisplatin); conditions: for toxicity to HEK293 cells: study with docetaxel and cisplatin (FIG. 4)
[9] = system: A498 kidney cancer cell line; test: MTS cell viability assay, A498 kidney cancer cells; type: cell-based
[10] = system: LNCaP prostate cancer cell line; test: MTS cell viability assay, LNCaP prostate cancer cells; type: cell-based, human; conditions: 0.01 to 300 μM, read-out: IC50 to reduce LNCaP cell number
[11] = HL-7002 cells, similar conditions
[12] = HL-7002 cells, study with docetaxel and cisplatin (FIG. 3)
[13] = HEK293 cells, similar conditions
[14] = read-out: IC50 in HEK293 cells, HEK293 cells, study with carboplatin and 5-FU (FIG. 8)
[15] = ACHN cells, MTS, 0.01 to 300 uM
[16] = HL-7002 cells, study with carboplatin and 5-FU (FIG. 7)
[17] = A498 cells, MTS, 0.01 to 300 uM, read-out: IC50 to reduce A498 cell number

Compound: carboplatin cis-cyclobutane-1,2-dicarboxylic acid co-crystal [CBCBP]
- pIC50 [1]: ~4.75 and 4.75
- inhibition rate HbsAg ([2]; 3.125 μg/mL): 19.5%
- inhibition rate HbsAg ([2]; 6.25 μg/mL): 23.6%
- inhibition rate HbsAg ([2]; 12.5 μg/mL): 37.3%
- inhibition rate HbsAg ([2]; 25 μg/mL): 48.5%
- toxicity of CBCBP relative to cisplatin [3, 11]: about 1/10
- toxicity of CBCBP relative to docetaxel [3, 11]: about 1/216
- pIC50 [3, 12]: ~4.69 and 4.69
- toxicity of CBCBP relative to 5-FU [4, 13]: about ¼
- toxicity of CBCBP relative to carboplatin [4, 13]: about ⅕
- pIC50 [4, 14]: 2.92 and ~2.92
- pIC50 [5, 15]: 4.93 and ~4.93
- inhibition rate HbeAg ([6]; 3.125 μg/mL): 0.6%
- inhibition rate HbeAg ([6]; 6.25 μg/mL): 25.0%
- inhibition rate HbeAg ([6]; 12.5 μg/mL): 25.3%
- inhibition rate HbeAg ([6]; 25 μg/mL): 28.5%
- toxicity of CBCBP relative to 5-FU [7, 11]: about ⅛
- toxicity of CBCBP relative to carboplatin [7, 11]: about 1/10
- pIC50 [7, 16]: 3.45 and ~3.45
- water solubility (Water solubility): ~30 mg/mL
- toxicity to HEK293 cells [8]: no toxicity
- pIC50 [9, 17]: ~4.74 and 4.74
- pIC50 [10]: ~4.71

Compound: N.N.[Cl][Pt][Cl] [cisplatin, reference compound]
- pIC50 [1]: 5.60
- pIC50 [3, 12]: 5.70
- pIC50 ([8]; read-out: IC50 in HEK293 cells, study with docetaxel and cisplatin (FIG. 4)): 5.16
- pIC50 [10]: 5.65

Compound: O=c1[nH]cc(F)c(=O)[nH]1 [5-FU, fluorouracil, reference compound]
- pIC50 ([4]; Homo sapiens, HEK293, read-out: IC50 in HEK293 cells): 3.45
- pIC50 ([5]; Homo sapiens, ACHN): 5.19
- pIC50 ([7]; Homo sapiens, Hepatocyte): 4.35
- pIC50 ([9]; Homo sapiens, A498, read-out: IC50 to reduce A498 cell number): 4.74

Compound: N.N.O=C([O-])C1(C(=O)[O-])CCC1.[Pt+2] [carboplatin, reference compound]
- pIC50 [4, 14]: 3.63
- pIC50 [5, 15]: 4.96
- pIC50 [7, 16]: 4.47
- water solubility (Water solubility): 18 mg/mL
- pIC50 [9, 17]: 4.83

Compound: CC(=O)O[C@@]12CO[C@@H]1C[C@H](O)[C@@]1(C)C(=O)[C@H](O)C3=C(C)[C@@H](OC(=O)[C@H](O)[C@@H](NC(=O)OC(C)(C)C)c4ccccc4)C[C@@](O)([C@@H](OC(=O)c4ccccc4)[C@H]21)C3(C)C [docetaxel, reference compound]
- pIC50 ([3]; Homo sapiens, Hepatocyte): 7.02
- toxicity to HEK293 cells [8]: strong toxicity
